{"source": "patent US20230193341A1", "about": "“EXPRESSION SYSTEMS, RECOMBINANT CELLS AND USES THEREOF” (Selexis SA, priority 2018, published 2023)", "format_in_all_cases": "cell-based, Chinese hamster", "key": {"[1]": {"tested_on": "PPAR target genes", "assay": "RT-qPCR of candidate / PPAR target gene expression in ETE (Trastuzumab) clone in fed-batch culture", "settings": "10 mM Bezafibrate added after 3 days of fed-batch, RT-qPCR at day 6 (FIG. 6A)", "experimental": "(§1) (A) ETE clone (Trastuzumab) non-treated (Control) or treated with 10 mM Bezafibrate PPARα ligand after […] of fed-batch culture (+Bezafibrate). Candidate gene expression were quantified at day 6 by RT-qPCR. (B) ETE cells treated with 10 mM Bezafibrate after 1-day fed-batch, and IgG titer measured after 10 days. Data are means±SE from four independent experiments. * P≤0.05 and ** P≤0.02 (t-test; 2 sided; unpaired sample, unequal variance).\n(§2) Growth and IgG secretion performances in fed-batch culture were performed according to Le Fourn et al., 2013, with the following changes: IgG producing clone stably transfected for the expression of MIPs were seeded at 300′000 cells/ml in 5 mL culture medium in falcon of 50 mL. Viable cell density and IgG titer (g/L) were evaluated after 3, 6, 8, 9, 10 and 13 days.\n(§3) For quantitative PCR (qPCR) analysis, total RNA was extracted from […] and reverse transcribed into cDNA using the GoScript Reverse transcription System (Promega). Transcripts accumulation was quantified by qPCR using the LightCycler© 480 SYBR Green I Master and the LightCycler 480 II instrument (Roche). Transcript levels were normalized to that of SDHA housekeeping gene."}, "[2]": {"tested_on": "ETE (Trastuzumab) cells", "assay": "Fed-batch culture of ETE (Trastuzumab) CHO cells: IgG production and cell survival", "experimental": "as §1\nThe percentage of fluorescent cells and the fluorescence intensity of GFP positive cells were determined by flow cytometry analysis using a CyAn ADP flow cytometer (BECKMAN COULTER). Immunoglobulin concentrations in cell culture supernatants were measured by sandwich ELISA. GFP, IgG1Lc, IgG1Hc and MIP transcript accumulation was confirmed by RT-quantitative PCR assays before analyses.\nas §2"}, "[3]": {"tested_on": "DTE cells", "assay": "Bezafibrate treatment of DTE CHO cells: target gene induction, production and fitness", "experimental": "(§4) Antibiotic-selected DTE (Infliximab) cells were stably transfected with mouse PPARα or with an empty vector. Analyses of gene expression, IgG titer and cell viability were performed comparing DTE clone with empty vector cell and PPARα overexpressing cells (PPARα_OE). (A) Gene expression of PPARα targets, PPARα and IgG (qRT-PCR) in none-treated cells or cells treated with Bezafibrate (BEZA). Bezafibrate was added at 10 mM at day 1 of the fed-batch culture. RNA was extracted at day 6 of the fed-batch culture. Infliximab IgG specific productivity (B) and cell viability (C) are illustrated in non-selective or B5-starving media. Cells were cultured in 12 well-plate at a starting amount of 2*105 cell/ml in non-selective or B5 starving medium for 5 days, then transferred in non-selective media. IgG specific productivity (PCD) was then measured over 3 days of culture in non-selective media. Each measurement is the result of three independent cultures. Statistics: * P≤0.05 and ** P≤0.02 (t-test; 1 sided; unpaired sample, unequal variance).\nas §2, §3"}, "[4]": {"tested_on": "exogenous PPARα", "assay": "DTE (Infliximab) cells stably overexpressing mouse PPARα (PPARα_OE): gene expression (qRT-PCR) and IgG productivity", "experimental": "as §4\nas §3, with “Transcript levels were normalized to that of SDHA housekeeping gene.” left out"}}}
{"compound": "CC(C)(Oc1ccc(CCNC(=O)c2ccc(Cl)cc2)cc1)C(=O)O", "note": "[Bezafibrate, 2-[4-[2-(4-chlorobenzamido)ethyl]phenoxy]-2-methylpropanoic acid]", "values": [{"measurement": "expression of B5-target Slc22a14", "setting": "[1]", "result": "activated"}, {"measurement": "expression of Cyp4a14", "setting": "[1]", "result": "not induced"}, {"measurement": "expression of PPAR target genes HmgCs2, Acot1, DBI1, AscI1 and RXR nuclear receptor", "setting": "[1]", "result": "induces PPAR target genes"}, {"measurement": "recombinant protein (IgG titer) at the end of the fed-batch", "setting": "[2]; ETE cells, 10 mM Bezafibrate added at day 1 of fed-batch, IgG titer after 10 days (FIG. 6B)", "result": "beneficial for recombinant protein"}, {"measurement": "cell division, viability and recombinant protein production", "setting": "[2]; ETE cells, increased bezafibrate concentration, data not shown", "result": "doesn't show any beneficial effect"}, {"measurement": "cell survival under starvation stress during the fed-batch process", "setting": "[2]; addition at day 3 of the fed-batch, data not shown", "result": "significantly improved cell survival"}, {"measurement": "IgG production", "setting": "[2]; addition at day 3 of the fed-batch, normal fed-batch conditions of feeding", "result": "no improvement of IgG production"}, {"measurement": "cell production and fitness", "setting": "[3]", "result": "the cell production and fitness weren't improved"}, {"measurement": "induction of PPAR target genes", "setting": "[3]", "result": "the same target genes are induced"}, {"measurement": "cell division, viability and recombinant protein production", "setting": "[3]; increased bezafibrate concentration, data not shown", "result": "doesn't show any beneficial effect"}, {"measurement": "IgG productivity", "setting": "[4]; PPARα_OE DTE (Infliximab) cells with bezafibrate (FIG. 7B)", "result": "higher IgG productivity"}, {"measurement": "transcription of PPAR-target genes, RXR nuclear factor and IgG light and heavy chains", "setting": "[4]; PPARα_OE DTE (Infliximab) cells, Bezafibrate 10 mM at day 1, RNA at day 6 of fed-batch (FIG. 7A)", "result": "induced the transcription of PPAR-target genes"}]}
